Results from patent EP4745135A1 (Gluetacs Therapeutics (Shanghai) Co., Ltd., priority 2023, dated 2025).
One block for each compound: values may come before it.

Columns and labels:
CK1α = target: T1, CK1α (Homo sapiens, UniProt P48729+Q96SW2); experiment: Western blot, degradation of substrate protein in hPBMCs; format: cell-based
T1 construct: effects of the compounds of the present disclosure on the expression of target proteins in cells; endogenous in cells; host or cells: human PBMCs (Milecell Biotechnologies)
T1 sequence (P48729 whole entry): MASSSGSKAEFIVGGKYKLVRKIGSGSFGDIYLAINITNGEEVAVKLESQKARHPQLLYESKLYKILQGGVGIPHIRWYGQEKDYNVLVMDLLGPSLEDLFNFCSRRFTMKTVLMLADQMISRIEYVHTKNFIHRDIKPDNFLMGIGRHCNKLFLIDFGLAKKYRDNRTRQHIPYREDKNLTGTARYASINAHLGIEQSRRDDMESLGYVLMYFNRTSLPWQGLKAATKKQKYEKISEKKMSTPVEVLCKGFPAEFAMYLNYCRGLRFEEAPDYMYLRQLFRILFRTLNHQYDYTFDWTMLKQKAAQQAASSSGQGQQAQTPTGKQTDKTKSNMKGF
T1 sequence (Q96SW2 whole entry): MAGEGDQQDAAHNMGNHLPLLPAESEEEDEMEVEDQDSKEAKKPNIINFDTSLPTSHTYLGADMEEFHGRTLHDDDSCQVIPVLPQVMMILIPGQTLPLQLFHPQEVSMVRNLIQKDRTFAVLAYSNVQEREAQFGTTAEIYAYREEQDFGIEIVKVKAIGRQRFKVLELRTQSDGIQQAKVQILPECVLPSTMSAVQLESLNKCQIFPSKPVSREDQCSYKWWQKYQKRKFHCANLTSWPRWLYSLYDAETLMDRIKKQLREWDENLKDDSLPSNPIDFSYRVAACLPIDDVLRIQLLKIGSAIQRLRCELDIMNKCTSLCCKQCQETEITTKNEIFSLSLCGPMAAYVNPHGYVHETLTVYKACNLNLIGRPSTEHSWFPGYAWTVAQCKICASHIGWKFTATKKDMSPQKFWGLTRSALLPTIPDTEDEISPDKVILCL
T1 sequence (Q16531 whole entry partner): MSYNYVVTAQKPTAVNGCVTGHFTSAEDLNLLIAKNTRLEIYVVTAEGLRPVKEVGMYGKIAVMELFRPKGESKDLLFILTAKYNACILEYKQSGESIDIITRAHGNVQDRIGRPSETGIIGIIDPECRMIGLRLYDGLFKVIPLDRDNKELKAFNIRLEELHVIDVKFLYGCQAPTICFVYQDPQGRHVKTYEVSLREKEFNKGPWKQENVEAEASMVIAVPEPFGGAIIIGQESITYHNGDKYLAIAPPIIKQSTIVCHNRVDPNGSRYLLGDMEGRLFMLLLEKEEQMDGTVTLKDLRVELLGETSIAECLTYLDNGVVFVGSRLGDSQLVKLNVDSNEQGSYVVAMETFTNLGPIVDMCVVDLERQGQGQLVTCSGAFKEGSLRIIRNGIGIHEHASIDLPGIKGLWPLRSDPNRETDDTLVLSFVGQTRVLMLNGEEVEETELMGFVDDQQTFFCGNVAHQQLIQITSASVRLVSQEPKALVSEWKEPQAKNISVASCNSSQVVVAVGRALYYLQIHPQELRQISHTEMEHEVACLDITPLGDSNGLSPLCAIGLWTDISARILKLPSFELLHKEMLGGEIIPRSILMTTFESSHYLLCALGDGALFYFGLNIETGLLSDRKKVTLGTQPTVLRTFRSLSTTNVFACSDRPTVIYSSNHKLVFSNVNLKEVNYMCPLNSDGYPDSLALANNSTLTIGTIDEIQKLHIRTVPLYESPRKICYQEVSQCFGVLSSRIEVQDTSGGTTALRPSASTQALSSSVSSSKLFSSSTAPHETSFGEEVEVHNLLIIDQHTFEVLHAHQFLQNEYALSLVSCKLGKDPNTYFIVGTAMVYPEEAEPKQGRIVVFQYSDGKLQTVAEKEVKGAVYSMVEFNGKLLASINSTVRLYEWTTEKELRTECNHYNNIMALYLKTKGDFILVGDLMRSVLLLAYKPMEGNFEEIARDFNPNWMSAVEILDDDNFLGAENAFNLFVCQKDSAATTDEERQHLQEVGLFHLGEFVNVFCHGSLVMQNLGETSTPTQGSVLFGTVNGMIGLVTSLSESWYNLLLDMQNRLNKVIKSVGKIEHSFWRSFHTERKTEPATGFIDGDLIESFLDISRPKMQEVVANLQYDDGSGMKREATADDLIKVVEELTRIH
Method: (§1) Conventional Western blot assay was performed to evaluate the effects of the compounds of the present disclosure on the expression of target proteins in cells. • (1) Cell Seeding and Protein Harvesting: Human peripheral blood mononuclear cells (hPBMCs) at a density of 1×10^6 cells/mL were thawed according to the PBMC Recovery Protocol (Milecell Biotechnologies Inc, Shanghai). […] After 24 hours of compounds treatment, cells were harvested and lysed in RIPA protein lysate containing protease inhibitors on ice for 30 min, followed by centrifugation. The supernatant was aspirated as the extracted total cell protein. The protein concentration of the supernatant was determined using the conventional BCA (Bicinchoninic Acid) assay. • (2) To the collected supernatant, 5X SDS sample loading buffer was added, followed by denaturation at 95°C for 5 minutes. The denatured samples were then separated by SDS-PAGE electrophoresis on a polyacrylamide gel, transferred onto a nitrocellulose membrane (0.45 µm NC membrane), blocked with blocking buffer at room temperature for 1 hour, and subjected to antibody incubation and development procedures according to the antibody manufacturer's instructions (Cell Signaling Technology Company).
(§2) Half-Maximal Degradation Concentration value (the drug concentration required for degrading proteins by 50%, abbreviated as DC50) reads method: comparing the grayscale values of Western blot bands from drug-treated samples with those from blank DMSO-treated controls, and identifying the drug concentration range at which the grayscale value is half that of the DMSO-treated control bands.
(§3) DC50 values can be calculated using ImageJ software to measure grayscale values of Western blot bands from drug-treated samples. The concentration-response curve is fitted to estimate the drug concentration corresponding to half the grayscale value.
(§4) Target protein remaining (%) refers to the percentage of target protein remaining in cells after treatment with protein degrader compounds.
(§5) Calculation method for target protein remaining (%): Use ImageJ software to measure grayscale values of Western blot bands from drug (protein degrader)-treated samples. The grayscale value of drug-treated bands is divided by that of internal control protein bands, and the resulting quotient is normalized to obtain the relative percentage of remaining target protein after protein degrader treatment.
(§6) Target protein degradation rate (%) = 1−target protein remaining (%). [formula]

IKZF1 = target: T2, IKZF1 (Homo sapiens, UniProt Q13422+Q96SW2); experiment: as above; format: cell-based
T2 construct: effects of the compounds of the present disclosure on the expression of target proteins in cells; endogenous in cells; host or cells: human PBMCs (Milecell Biotechnologies)
T2 sequence (Q13422 whole entry): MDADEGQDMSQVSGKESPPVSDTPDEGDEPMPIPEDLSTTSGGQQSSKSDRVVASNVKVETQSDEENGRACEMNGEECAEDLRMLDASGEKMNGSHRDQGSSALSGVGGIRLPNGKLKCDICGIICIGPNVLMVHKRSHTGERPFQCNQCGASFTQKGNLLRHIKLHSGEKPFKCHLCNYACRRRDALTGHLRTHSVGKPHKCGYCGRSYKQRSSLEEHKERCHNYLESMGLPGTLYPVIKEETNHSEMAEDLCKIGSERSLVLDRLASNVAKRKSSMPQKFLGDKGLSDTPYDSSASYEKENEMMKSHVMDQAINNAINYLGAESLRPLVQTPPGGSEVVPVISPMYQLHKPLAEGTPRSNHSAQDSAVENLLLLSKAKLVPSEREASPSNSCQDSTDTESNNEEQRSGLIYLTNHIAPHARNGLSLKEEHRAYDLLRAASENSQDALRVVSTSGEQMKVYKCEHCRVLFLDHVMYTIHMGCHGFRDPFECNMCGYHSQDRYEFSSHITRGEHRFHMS
T2 sequence (Q96SW2 whole entry): as the sequence (Q96SW2 whole entry) above
T2 sequence (Q16531 whole entry partner): as the sequence (Q16531 whole entry partner) above
Method: as §1, §2, §3, §4, §5, §6

IKZF2 = target: T3, IKZF2 (Homo sapiens, UniProt Q96SW2+Q9UKS7); experiment: as above; format: cell-based
T3 construct: effects of the compounds of the present disclosure on the expression of target proteins in cells; endogenous in cells; host or cells: human PBMCs (Milecell Biotechnologies)
T3 sequence (Q9UKS7 whole entry): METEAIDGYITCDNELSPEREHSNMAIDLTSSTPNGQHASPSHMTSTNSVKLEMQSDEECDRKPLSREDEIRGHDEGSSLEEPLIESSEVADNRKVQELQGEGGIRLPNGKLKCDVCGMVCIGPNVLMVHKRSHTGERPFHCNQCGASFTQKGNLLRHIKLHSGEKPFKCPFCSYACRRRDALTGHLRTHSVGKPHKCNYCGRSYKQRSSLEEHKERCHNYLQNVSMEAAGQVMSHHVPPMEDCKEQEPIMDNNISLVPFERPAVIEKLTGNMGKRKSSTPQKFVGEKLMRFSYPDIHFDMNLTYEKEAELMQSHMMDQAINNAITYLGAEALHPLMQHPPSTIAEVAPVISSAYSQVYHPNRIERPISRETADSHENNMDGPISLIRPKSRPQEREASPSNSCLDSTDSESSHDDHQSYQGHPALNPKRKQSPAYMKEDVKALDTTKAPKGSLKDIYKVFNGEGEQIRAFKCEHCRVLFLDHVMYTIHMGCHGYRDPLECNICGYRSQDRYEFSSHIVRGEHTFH
T3 sequence (Q96SW2 whole entry): as the sequence (Q96SW2 whole entry) above
T3 sequence (Q16531 whole entry partner): as the sequence (Q16531 whole entry partner) above
Method: as §1, §2, §3, §4, §5, §6

IKZF3 = target: T4, IKZF3 (Homo sapiens, UniProt Q96SW2+Q9UKT9); experiment: as above; format: cell-based
T4 construct: effects of the compounds of the present disclosure on the expression of target proteins in cells; endogenous in cells; host or cells: human PBMCs (Milecell Biotechnologies)
T4 sequence (Q9UKT9 whole entry): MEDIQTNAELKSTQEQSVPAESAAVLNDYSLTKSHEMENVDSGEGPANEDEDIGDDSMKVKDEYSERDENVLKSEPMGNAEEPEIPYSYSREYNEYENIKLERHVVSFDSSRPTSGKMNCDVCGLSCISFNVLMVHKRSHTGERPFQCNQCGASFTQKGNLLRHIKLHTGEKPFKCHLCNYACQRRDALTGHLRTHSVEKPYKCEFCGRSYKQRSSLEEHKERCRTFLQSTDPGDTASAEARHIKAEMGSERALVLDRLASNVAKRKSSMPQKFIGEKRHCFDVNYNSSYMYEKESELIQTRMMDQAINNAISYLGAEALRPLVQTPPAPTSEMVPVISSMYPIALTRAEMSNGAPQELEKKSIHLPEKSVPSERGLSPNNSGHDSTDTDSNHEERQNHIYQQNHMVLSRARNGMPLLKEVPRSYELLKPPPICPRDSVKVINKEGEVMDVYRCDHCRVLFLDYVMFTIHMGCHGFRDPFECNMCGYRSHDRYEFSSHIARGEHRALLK
T4 sequence (Q96SW2 whole entry): as the sequence (Q96SW2 whole entry) above
T4 sequence (Q16531 whole entry partner): as the sequence (Q16531 whole entry partner) above
Method: as §1, §2, §3, §4, §5, §6

WEE1 = target: T5, WEE1 (Homo sapiens, UniProt P30291+Q96SW2); experiment: as above; format: cell-based
T5 construct: effects of the compounds of the present disclosure on the expression of target proteins in cells; endogenous in cells; host or cells: human PBMCs (Milecell Biotechnologies)
T5 sequence (P30291 whole entry): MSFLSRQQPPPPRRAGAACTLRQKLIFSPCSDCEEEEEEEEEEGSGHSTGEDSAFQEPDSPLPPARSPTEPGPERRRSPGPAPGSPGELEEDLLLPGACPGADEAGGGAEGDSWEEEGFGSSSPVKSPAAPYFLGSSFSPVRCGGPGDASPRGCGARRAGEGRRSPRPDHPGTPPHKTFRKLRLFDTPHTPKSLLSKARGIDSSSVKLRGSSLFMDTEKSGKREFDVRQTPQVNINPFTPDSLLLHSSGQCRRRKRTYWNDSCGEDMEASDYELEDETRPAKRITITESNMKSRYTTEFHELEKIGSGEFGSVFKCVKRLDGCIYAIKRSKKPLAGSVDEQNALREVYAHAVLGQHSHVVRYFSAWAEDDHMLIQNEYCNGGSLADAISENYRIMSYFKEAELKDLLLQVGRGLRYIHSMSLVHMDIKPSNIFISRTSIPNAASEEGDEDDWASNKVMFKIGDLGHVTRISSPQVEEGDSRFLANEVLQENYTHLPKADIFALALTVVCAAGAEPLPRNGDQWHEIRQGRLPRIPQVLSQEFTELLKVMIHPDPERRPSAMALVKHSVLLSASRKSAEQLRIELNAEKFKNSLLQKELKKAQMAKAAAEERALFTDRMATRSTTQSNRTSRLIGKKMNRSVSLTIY
T5 sequence (Q96SW2 whole entry): as the sequence (Q96SW2 whole entry) above
T5 sequence (Q16531 whole entry partner): as the sequence (Q16531 whole entry partner) above
Method: as §1, §2, §3, §4, §5, §6

GSPT1 = experiment: as above; format: cell-based, Human
Method: as §1, §2, §3, §4, §5, §6

[1] = target: T6, human Cereblon WT GST-tagged protein (Homo sapiens, UniProt Q96SW2); experiment: CRBN-binding affinity, HTRF (CEREBLON BINDING kit); details: CRBN binding, HTRF, 3 hours at room temperature; read-out: HTRF IC50
T6 construct: purchased CISBIO 64BDCRBNPEH
T6 sequence (Q96SW2 whole entry): as the sequence (Q96SW2 whole entry) above

[2] = 24 hours treatment, compounds at 50 nM and 500 nM (concentration behind the class not stated)
[3] = Western blot, 24 hours of compound treatment, compounds tested at 50 nM and 500 nM (concentration for the table not stated)

Structure (SMILES): O=C1CCC(N2Cc3c(CN4CCC(c5noc6cc(F)ccc56)CC4)cccc3C2=S)C(=O)N1 (stereo not shown) [GT-04997, 3-(4-((4-(6-fluorobenzo[d]isoxazol-3-yl)piperidin-1-yl)methyl)-1-thioxoisoindolin-2-yl)piperidine-2,6-dione]
CK1α substrate protein remaining % (CK1α; [2]): B (80%< substrate protein remaining %≤ 100%)
IKZF 1 substrate protein remaining % (IKZF1; [2]): B (80%< substrate protein remaining %≤ 100%)
IKZF2 substrate protein remaining % (IKZF2; [2]): B (80%< substrate protein remaining %≤ 100%)
IKZF3 substrate protein remaining % (IKZF3; [2]): B (80%< substrate protein remaining %≤ 100%)
Wee1 substrate protein remaining % (WEE1; [2]): A (0% ≤ substrate protein remaining % ≤ 80%)
GSPT1 substrate protein remaining % (GSPT1; [2]): B (80%< substrate protein remaining %≤ 100%)
IC50 [1]: 100 to 500 nM

Structure (SMILES): Cc1ccsc1C1=CCN(Cc2ccc3c(c2)C(=S)N(C2CCC(=O)NC2=O)C3)CC1 (stereo not shown) [GT-05032, 3-(6-((4-(3-methylthiophen-2-yl)-3,6-dihydropyridin-1(2H)-yl)methyl)-1-thioxoisoindolin-2-yl)piperidine-2,6-dione]
CK1α substrate protein remaining % (CK1α; [2]): B (80%< substrate protein remaining %≤ 100%)
IKZF 1 substrate protein remaining % (IKZF1; [2]): B (80%< substrate protein remaining %≤ 100%)
IKZF2 substrate protein remaining % (IKZF2; [2]): B (80%< substrate protein remaining %≤ 100%)
IKZF3 substrate protein remaining % (IKZF3; [2]): A (0% ≤ substrate protein remaining % ≤ 80%)
Wee1 substrate protein remaining % (WEE1; [2]): B (80%< substrate protein remaining %≤ 100%)
GSPT1 substrate protein remaining % (GSPT1; [2]): A (0% ≤ substrate protein remaining % ≤ 80%)
IC50 [1]: 100 to 500 nM

Structure (SMILES): O=C1CCC(N2Cc3cc(CN4CCC(c5noc6cc(F)ccc56)CC4)ccc3C2=S)C(=O)N1 (stereo not shown) [GT-05089, 3-(5-((4-(6-fluorobenzo[d]isoxazol-3-yl)piperidin-1-yl)methyl)-1-thioxoisoindolin-2-yl)piperidine-2,6-dione]
CK1α substrate protein remaining % (CK1α; [3]): B (80%< substrate protein remaining %≤ 100%)
IKZF 1 substrate protein remaining % (IKZF1; [3]): B (80%< substrate protein remaining %≤ 100%)
IKZF2 substrate protein remaining % (IKZF2; [3]): B (80%< substrate protein remaining %≤ 100%)
IKZF3 substrate protein remaining % (IKZF3; [3]): B (80%< substrate protein remaining %≤ 100%)
Wee1 substrate protein remaining % (WEE1; [3]): B (80%< substrate protein remaining %≤ 100%)
GSPT1 substrate protein remaining % (GSPT1; [3]): A (0% ≤ substrate protein remaining % ≤ 80%)
IC50 [1]: < 100 nM

Structure (SMILES): O=C1CCC(N2Cc3c(CN4CCN(c5c(Cl)ccnc5Cl)CC4)cccc3C2=S)C(=O)N1 (stereo not shown) [GT-08725, 3-(4-((4-(2,4-dichloropyridin-3-yl)piperazin-1-yl)methyl)-1-thioxoisoindolin-2-yl)piperidine-2,6-dione]
CK1α substrate protein remaining % (CK1α; [3]): B (80%< substrate protein remaining %≤ 100%)
IKZF 1 substrate protein remaining % (IKZF1; [3]): B (80%< substrate protein remaining %≤ 100%)
IKZF2 substrate protein remaining % (IKZF2; [3]): B (80%< substrate protein remaining %≤ 100%)
IKZF3 substrate protein remaining % (IKZF3; [3]): B (80%< substrate protein remaining %≤ 100%)
Wee1 substrate protein remaining % (WEE1; [3]): A (0% ≤ substrate protein remaining % ≤ 80%)
GSPT1 substrate protein remaining % (GSPT1; [3]): A (0% ≤ substrate protein remaining % ≤ 80%)

Structure (SMILES): CC(C)c1cc2c(N3CCN(Cc4cccc5c4CN(C4CCC(=O)NC4=O)C5=S)CC3)ncnc2s1 (stereo not shown) [GT-08915, 3-(4-((4-(6-isopropylthieno[2,3-d]pyrimidin-4-yl)piperazin-1-yl)methyl)-1-thioxoisoindolin-2-yl)piperidine-2,6-dione]
CK1α substrate protein remaining % (CK1α; [2]): B (80%< substrate protein remaining %≤ 100%)
IKZF 1 substrate protein remaining % (IKZF1; [2]): B (80%< substrate protein remaining %≤ 100%)
IKZF2 substrate protein remaining % (IKZF2; [2]): B (80%< substrate protein remaining %≤ 100%)
IKZF3 substrate protein remaining % (IKZF3; [2]): B (80%< substrate protein remaining %≤ 100%)
Wee1 substrate protein remaining % (WEE1; [2]): A (0% ≤ substrate protein remaining % ≤ 80%)
GSPT1 substrate protein remaining % (GSPT1; [2]): B (80%< substrate protein remaining %≤ 100%)

Structure (SMILES): Cc1csc2ncnc(C3=CCN(Cc4cccc5c4CN(C4CCC(=O)NC4=O)C5=S)CC3)c12 (stereo not shown) [GT-08938, 3-(4-((4-(5-methylthieno[2,3-d]pyrimidin-4-yl)-3,6-dihydropyridin-1(2H)-yl)methyl)-1-thioxoisoindolin-2-yl)piperidine-2,6-dione]
CK1α substrate protein remaining % (CK1α; [2]): B (80%< substrate protein remaining %≤ 100%)
IKZF 1 substrate protein remaining % (IKZF1; [2]): B (80%< substrate protein remaining %≤ 100%)
IKZF2 substrate protein remaining % (IKZF2; [2]): B (80%< substrate protein remaining %≤ 100%)
IKZF3 substrate protein remaining % (IKZF3; [2]): B (80%< substrate protein remaining %≤ 100%)
Wee1 substrate protein remaining % (WEE1; [2]): A (0% ≤ substrate protein remaining % ≤ 80%)
GSPT1 substrate protein remaining % (GSPT1; [2]): B (80%< substrate protein remaining %≤ 100%)

Now from value to compound, other results behind:

IC50 [1]: 100 to 500 nM
Structure (SMILES): O=C1CCC(N2Cc3ccc(CN4CCC(c5noc6cc(F)ccc56)CC4)cc3C2=S)C(=O)N1 (stereo not shown) [GT-05031, 3-(6-((4-(6-fluorobenzo[d]isoxazol-3-yl)piperidin-1-yl)methyl)-1-thioxoisoindolin-2-yl)piperidine-2,6-dione]
CK1α substrate protein remaining % (CK1α; [2]): B (80%< substrate protein remaining %≤ 100%)
IKZF 1 substrate protein remaining % (IKZF1; [2]): B (80%< substrate protein remaining %≤ 100%)
IKZF2 substrate protein remaining % (IKZF2; [2]): B (80%< substrate protein remaining %≤ 100%)
IKZF3 substrate protein remaining % (IKZF3; [2]): A (0% ≤ substrate protein remaining % ≤ 80%)
Wee1 substrate protein remaining % (WEE1; [2]): B (80%< substrate protein remaining %≤ 100%)
GSPT1 substrate protein remaining % (GSPT1; [2]): A (0% ≤ substrate protein remaining % ≤ 80%)

IC50 [1]: 100 to 500 nM
Structure (SMILES): O=C1CCC(N2Cc3ccc(CN4CCN(c5cccc(Cl)c5Cl)CC4)cc3C2=S)C(=O)N1 (stereo not shown) [GT-05033, 3-(6-((4-(2,3-dichlorophenyl)piperazin-1-yl)methyl)-1-thioxoisoindolin-2-yl)piperidine-2,6-dione]
CK1α substrate protein remaining % (CK1α; [2]): B (80%< substrate protein remaining %≤ 100%)
IKZF 1 substrate protein remaining % (IKZF1; [2]): B (80%< substrate protein remaining %≤ 100%)
IKZF2 substrate protein remaining % (IKZF2; [2]): B (80%< substrate protein remaining %≤ 100%)
IKZF3 substrate protein remaining % (IKZF3; [2]): A (0% ≤ substrate protein remaining % ≤ 80%)
Wee1 substrate protein remaining % (WEE1; [2]): B (80%< substrate protein remaining %≤ 100%)
GSPT1 substrate protein remaining % (GSPT1; [2]): A (0% ≤ substrate protein remaining % ≤ 80%)

IC50 [1]: 100 to 500 nM
Structure (SMILES): O=C1CCC(N2Cc3ccc(CN4CCN(c5cccc6sccc56)CC4)cc3C2=S)C(=O)N1 (stereo not shown) [GT-05035, 3-(6-((4-(benzo[b]thiophen-4-yl)piperazin-1-yl)methyl)-1-thioxoisoindolin-2-yl)piperidine-2,6-dione]
CK1α substrate protein remaining % (CK1α; [3]): B (80%< substrate protein remaining %≤ 100%)
IKZF 1 substrate protein remaining % (IKZF1; [3]): A (0% ≤ substrate protein remaining % ≤ 80%)
IKZF2 substrate protein remaining % (IKZF2; [3]): A (0% ≤ substrate protein remaining % ≤ 80%)
IKZF3 substrate protein remaining % (IKZF3; [3]): A (0% ≤ substrate protein remaining % ≤ 80%)
Wee1 substrate protein remaining % (WEE1; [3]): A (0% ≤ substrate protein remaining % ≤ 80%)
GSPT1 substrate protein remaining % (GSPT1; [3]): A (0% ≤ substrate protein remaining % ≤ 80%)

IC50 [1]: 1500 to 1900 nM
Structure (SMILES): O=C1CCC(N2Cc3ccc(CN4CCN(C(c5ccccc5)c5ccccn5)CC4)cc3C2=S)C(=O)N1 (stereo not shown) [GT-05041, 3-(6-((4-(phenyl(pyridin-2-yl)methyl)piperazin-1-yl)methyl)-1-thioxoisoindolin-2-yl)piperidine-2,6-dione]
CK1α substrate protein remaining % (CK1α; [3]): B (80%< substrate protein remaining %≤ 100%)
IKZF 1 substrate protein remaining % (IKZF1; [3]): A (0% ≤ substrate protein remaining % ≤ 80%)
IKZF2 substrate protein remaining % (IKZF2; [3]): B (80%< substrate protein remaining %≤ 100%)
IKZF3 substrate protein remaining % (IKZF3; [3]): B (80%< substrate protein remaining %≤ 100%)
Wee1 substrate protein remaining % (WEE1; [3]): B (80%< substrate protein remaining %≤ 100%)
GSPT1 substrate protein remaining % (GSPT1; [3]): A (0% ≤ substrate protein remaining % ≤ 80%)
